This is an account of results in article PMC5065787 (Bioorganic & medicinal chemistry, 2016).

In general, Km refers to the concentration of substrate that gives half-maximal velocity.

The conditions of series [1]: possibly due to cellular lability of the ester moiety; cited from earlier work.
For series [2] the following is noted: cited from earlier work.
The conditions of series [3]: cited from earlier work. This is another data set of the same source.
Another series has as its system dog LOX ortholog. As to conditions: cited from earlier work.
For the next series, the system named is rat LOX ortholog. As to conditions: cited from earlier work.
The next series has as its system h15-LOX-1. As to conditions: cited from earlier work.
Another series concerns the target T1, WT h15-LOX-1 (Homo sapiens, UniProt P16050).
T1 sequence (P16050 1-662): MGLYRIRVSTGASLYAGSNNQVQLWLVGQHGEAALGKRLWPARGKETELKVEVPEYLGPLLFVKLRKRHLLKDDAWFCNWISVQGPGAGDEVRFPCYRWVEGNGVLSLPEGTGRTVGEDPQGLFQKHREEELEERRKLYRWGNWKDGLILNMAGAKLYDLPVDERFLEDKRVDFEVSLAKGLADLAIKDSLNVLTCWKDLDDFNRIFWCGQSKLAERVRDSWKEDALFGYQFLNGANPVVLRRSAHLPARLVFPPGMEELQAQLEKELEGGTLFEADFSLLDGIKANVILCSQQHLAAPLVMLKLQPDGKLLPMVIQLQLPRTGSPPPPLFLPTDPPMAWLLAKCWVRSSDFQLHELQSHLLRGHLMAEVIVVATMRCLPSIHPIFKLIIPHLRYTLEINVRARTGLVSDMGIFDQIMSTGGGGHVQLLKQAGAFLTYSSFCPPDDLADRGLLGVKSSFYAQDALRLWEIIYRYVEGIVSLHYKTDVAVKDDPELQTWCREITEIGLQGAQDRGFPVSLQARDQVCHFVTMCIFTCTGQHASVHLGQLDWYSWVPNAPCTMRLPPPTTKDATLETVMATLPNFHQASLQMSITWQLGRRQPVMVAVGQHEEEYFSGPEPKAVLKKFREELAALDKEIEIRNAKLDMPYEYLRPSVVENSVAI
The experiment in a line: Steady-state substrate kinetics, WT. It counts as biochemical. The following applies: error in parentheses.

The target in the next series is T2, h15-LOX-1 F414I (Homo sapiens, UniProt P16050, F414I).
T2 sequence (P16050 1-662 F414I): T1 sequence (P16050 1-662) with F414I
The experiment in a line: Steady-state substrate kinetics, F414I. It counts as biochemical. As to conditions: error in parentheses.

Substrate in series [4]: CCCCC/C=C\C/C=C\C/C=C\C/C=C\CCCC(=O)O
Put plainly: Steady-state substrate kinetics, Q547L. The series is classed as biochemical, human. As to conditions: other: Q547L; error in parentheses; unit inferred; pH 7.5.

Substrate in series [5]: CCCCC/C=C\C/C=C\C/C=C\C/C=C\CCCC(=O)O
Put plainly: Steady-state substrate kinetics, F414I. It counts as biochemical, human. The following applies: other: F414I; error in parentheses; unit inferred; pH 7.5.

Substrate in series [6]: CCCCC/C=C\C/C=C\C/C=C\C/C=C\CCCC(=O)O
Put plainly: Steady-state substrate kinetics, E356Q. The series is classed as biochemical, human. As to conditions: other: E356Q; error in parentheses; unit inferred; pH 7.5.

Substrate in series [7]: CCCCC/C=C\C/C=C\C/C=C\C/C=C\CCCC(=O)O
Put plainly: Steady-state substrate kinetics, F414W. The series is classed as biochemical, human. The following applies: other: F414W; error in parentheses; unit inferred; pH 7.5.

Substrate in series [8]: CCCCC/C=C\C/C=C\C/C=C\C/C=C\CCCC(=O)O
The experiment in a line: Steady-state substrate kinetics, L407A. It counts as biochemical, human. The following applies: other: L407A; error in parentheses; unit inferred; pH 7.5.

Residue numbers refer to the chain shown, from its start. Numbers in names are those of the source.

For `O=C(OCC#CCSc1nnc(-c2cccc3ccccc23)o1)c1cccs1` [ML094, 4-(5-(Naphthalen-1-yl)-1,3,4-oxadiazol-2-ylthio)but-2-ynylthiophene-2-carboxylate], in series [1], the activity in vivo entry is listed as “no activity”.
With `CNc1oc(-c2cccc3ccccc23)nc1C#N` [ML351, 5-(methylamino)-2-(naphthalene-1-yl)oxazole-4-carbonitrile], in [2], the “in vivo activity in mice” value is “exhibits in vivo activity”.
In the case of `O=C(Nc1ccc(F)cc1Cl)c1c[nH]nn1` [BLX-2477, N-(2-chloro-4-fluorophenyl)triazole-4-carboxamide], in [3], the “adverse off-target effects in mini-pigs” value is listed as “adverse off-target effects”. Moreover, in the series with dog LOX ortholog, the “potency against dog LOX ortholog” value is reported as “not potent”. In the series on rat LOX ortholog, the “potency against rat LOX ortholog” value is recorded as “not potent”. Also, the “potency against h15-LOX-1” value with h15-LOX-1 is 0.099 µM.
`CCCCC/C=C\C/C=C\CCCCCCCC(=O)O` [LA, linoleic acid]: the kcat was 11 (0.4) at WT h15-LOX-1 (no unit in table (sec^−1)) and 1.6 (0.03) on h15-LOX-1 F414I (no unit in table (sec^−1)). Moreover, the Km on WT h15-LOX-1 (substrate 1-20 µM, unit inferred) came to 7.7 µM; at h15-LOX-1 F414I (unit inferred), 6.1 µM.
Regarding `CCCCCc1ccc(S(=O)(=O)NCCc2c(-c3ccc(C(F)(F)F)cc3)[nH]c3ccccc23)cc1` [tryptamine sulfonamide], the “potency against h15-LOX-1” value with h15-LOX-1 was 0.021 µM.

B1: h15-LOX-1 Q547L (Homo sapiens; Q547L) (protein)
chain: T1 sequence (P16050 1-662) with Q547L
Regarding B1, the Km in series [4] stood at 11 µM.

B2: h15-LOX-1 F414I (Homo sapiens; F414I) (protein)
chain: T1 sequence (P16050 1-662) with F414I
With B2, the Km in series [5] is 11 µM.

B3: h15-LOX-1 E356Q (Homo sapiens; E356Q) (protein)
chain: T1 sequence (P16050 1-662) with E356Q
Take B3: the Km in [6] is 4.1 µM.

B4: h15-LOX-1 F414W (Homo sapiens; F414W) (protein)
chain: T1 sequence (P16050 1-662) with F414W
As to B4, the Km in series [7] was 6.5 µM.

B5: h15-LOX-1 L407A (Homo sapiens; L407A) (protein)
chain: T1 sequence (P16050 1-662) with L407A
For B5, the Km in series [8] was 5.5 µM.
